In patent US11484517B2, “Combination comprising a PPAR agonist such as elafibranor and an acetyl-CoA carboxylase (ACC) inhibitor” (GENFIT, priority 2017, dated 2022):

Columns and labels:
TGFβ1-induced hHSC = test: α-SMA ELISA in TGFβ1-induced hHSC; format: cell-based, human
Method: (§1) The human primary hepatic stellate cells (hHSC) (Innoprot) were cultured under standard conditions, as described above.
The level of α-SMA was measured using a Sandwich ELISA. Briefly, the wells of an ELISA plate were first coated with the capture antibody (mouse monoclonal anti-ACTA2, Abnova) at 4° C. overnight. […] The cell lysates were transferred into the wells for binding to the capture antibody for a period of 2 h at room temperature. After the washing procedure, the detection antibody (biotinylated mouse monoclonal anti-ACTA2, Abnova) was added for 2 hours at room temperature followed by 3 washes. […] Upon oxidation, TMB forms a water-soluble blue reaction product that becomes yellow with addition of sulfuric acid (solution stop), enabling accurate measurement of the intensity at 450 nm using a spectrophotometer. The developed color is directly proportional to the amount of α-SMA present in the lysate.
as §1

CDFF-fed mice = test: mouse fibrosing-NASH model, CDFF diet (8 weeks); format: in vivo, C57Bl/6J mice
Method: The preventive effects of the combinations of elafibranor with selonsertib, GKT-831 or GS-0976 were assessed in mice fed a choline-deficient, […] diet (CDAA) supplemented with 2% cholesterol, 30% milk fat diet and high fructose corn syrup 55 (55% fructose/45% glucose for a final concentration of 42 g/L) in drinking water (Mells et al J Nutr Biochem 2015) (CDFF diet). 5-6 weeks old male C57Bl/6J mice were fed a control (CSAA) diet (n=4), CDFF (n=12), or CDFF supplemented with elafibranor (1 or 3 mg/kg/day), selonsertib (30 mg/kg/day), GKT-831 ([…]) alone or in combination (n=8 per group) for 8 weeks.
The body weight, the food and water intake were monitored twice per week. On the last day of treatment, plasma samples were obtained from retro-orbital blood sampling and mice were sacrificed after a 6 h-fasting period. The liver was rapidly excised for biochemical and histological analyses. […]
A technician blinded to the source of each liver specimen performed histological examinations. […] Briefly, steatosis, lobular inflammation and hepatocyte ballooning were scored. […]
(§2) Using Quant Center software (3D Histech, including Pattern Quant and Histo Quant modules), collagen-stained areas were quantified. […] The fibrosis area was then expressed as the percentage of the collagen surface to the whole tissue per animal.
(§3) The hepatic collagen content was determined using the appropriate QuickZyme kit (Total collagen assay, cat # QZB-totcol2). […]
(§4) Complete hydrolysis of tissue samples in 6M HCl at 95° C. is required before dosing the hydroxyproline. The assay results in the generation of a chromogen with a maximum absorbance at 570 nm. Results are expressed as mg of collagen/g of liver. […]
The plasmatic concentration of PIIINP was determined using an ELISA assay from Cloud-Clone Corp (cat # SEA573Mu), according to the manufacturer's instructions. […] The enzyme-substrate reaction is terminated by the addition of sulphuric acid solution and the color change is measured spectrophotometrically at a wavelength of 450 nm±10 nm. […]

[1] = system: rats fed a CDAA+1% cholesterol diet; test: chronic CDAA+1% cholesterol fibrosing NASH-model of rats (12 weeks); format: in vivo, Wistar rats; settings: liver; Percentage over the untreated CDAA + 1% cholesterol rats; GFT505 3 mg/kg/d, OCA 10 mg/kg/d
Method: Evaluation of Elafibranor, OCA and the combination Elafibranor+OCA in a chronic CDAA+1% cholesterol model (12 weeks).
The preventive effects of Elafibranor alone, OCA alone and the combination of both were assessed in a fibrosing NASH-model of rats fed a CDAA+1% cholesterol diet. 150-175 g male Wistar rats were fed a control (CSAA) diet, CDAA+1% cholesterol diet, or CDAA+1% cholesterol diet supplemented with Elafibranor 1, 3 and 10 mg/kg/day, OCA 10 and 30 mg/kg/day or combined drugs (Elafibranor 1, 3 and 10 mg/kg/day combined to OCA 10 mg/kg/day) for 12 weeks.
The body weight and the food intake were monitored twice per week. On the last day of treatment, rats were sacrificed after a 6 h fasting period. The liver was rapidly excised for biochemical and histological studies.
A technician blinded to the source of each liver specimen performed histological examinations. Virtual slides were generated using the Pannoramic 250 scanner from 3D Histech. […] Briefly, steatosis, lobular inflammation and hepatocytes ballooning were scored. […]
as §2, §3, §4
Quantitative PCR was then carried out using the CFX96 TOUCH Real-Time PCR Detection System (Biorad). […]
Expression levels were normalized using the expression of RPLP0 gene as a housekeeping gene of reference in samples. […] Expression levels were determined using the standard curve equation for both the housekeeping gene and the target gene (taking into account the specific PCR efficiency of each target gene).

CCCCOCCOc1ccc(-c2ccc3c(c2)/C=C(/C(=O)Nc2ccc([S@@+]([O-])Cc4cncn4CCC)cc2)CCCN3CC(C)C)cc1 [CVC, Cenicriviroc]
α-SMA inhibition, single agent (TGFβ1-induced hHSC; 5 μM alone, TGFβ1-induced hHSC): does not show any antifibrotic activity
antifibrotic effect (α-SMA), single agent, in words (TGFβ1-induced hHSC; TGFβ1-activated hHSC, all doses): did not show a significant effect at all doses

CN(C)c1cccc(-c2c3c(=O)n(-c4ccccc4Cl)[nH]c3cc(=O)n2C)c1 [GKT-831, 2-(2-chlorophenyl)-4-[3-(dimethylamino)phenyl]-5-methyl-1H-pyrazolo[4,3-c]pyridine-3,6(2H,5H)-dione]
effect on NASH and fibrosis (inflammatory infiltrates, NAFLD activity score, fibrosis) (CDFF-fed mice; GKT-831 60 mg/kg/day, elafibranor 1 mg/kg/day): no beneficial effect

COc1ccccc1[C@H](Cn1c(=O)n(C(C)(C)C(=O)O)c(=O)c2c(C)c(-c3ncco3)sc21)OC1CCOCC1 [GS-0976]
effect on liver fat and body weight (CDFF-fed mice; GS-0976 30 mg/kg/day alone): mild beneficial effect

CC[C@H]1[C@@H](O)[C@@H]2[C@H](CC[C@]3(C)[C@@H]([C@H](C)CCC(=O)O)CC[C@@H]23)[C@@]2(C)CC[C@@H](O)C[C@@H]12 [OCA, obeticholic acid]
CCR5 mRNA level (marker of inflammation) [1]: 81% ± 28%
TGFβ1 mRNA level [1]: 110% ± 23%
TIMP1 mRNA level [1]: 110% ± 43%

Cc1cc(F)c(C(=O)Nc2cccc(-c3nncn3C(C)C)n2)cc1-n1cnc(C2CC2)c1 [Selonsertib, selonsertib]
hepatic fibrosis (histology, hepatic collagen content, release of PIIINP and TIMP-1) (CDFF-fed mice; 8 weeks, elafibranor 3 mg/kg/day, selonsertib 30 mg/kg/day): improved hepatic fibrosis
